Test results from article PMC9722955 (Frontiers in Pharmacology, 2022).

What was measured:
NMDAR2B = assay: Western blotting of rat brain tissue, NMDAR2B; format: in vivo; settings: sesamin 60 mg/kg, 4 weeks, vs control
Description: (§1) The experiments were reviewed and approved by the Experimental Animal Centre of Dalian Medical University. All rats were obtained from Liaoning Changsheng Biotechnology co., Ltd. All animal experiments complied with the ARRIVE guidelines and were carried out in accordance with the National Institutes of Health guide for the care and use of laboratory animals (NIH Publications No. […], revised 1978). Wistar rats were randomly divided into the administration group (n = 5) and the control group (n = 5). The rats were provided with laboratory standard animal feed and kept under a 12-h light cycle. Sesamin (60 mg/kg) was given by intragastric administration daily for 4 weeks; the control group was given an equivalent volume of olive oil. The rats were anesthetized with pentobarbital sodium (40 mg/kg) and blood samples and brain tissue samples were collected for further assays.
(§2) The cells and tissues were harvested with lysis buffer and cleaved at 4°C for 20 min. All samples were centrifuged at 12,000 × g for 15 min at 4°C. The protein concentrations were quantified by BCA regent kits. Sodium dodecyl sulfate-polyacrylamide gel electrophoresis (SDS-PAGE) was used to separate the proteins, and they were then transferred to PVDF membranes. […] The protein bands were detected by a Tanon-5200 imaging system and the densities were analyzed by ImageJ software. […]

[1] = system: CYP46A1 activity (24S-hydroxycholesterol); assay: 24S-hydroxycholesterol levels in rat plasma and brain (ELISA) after sesamin; format: in vivo; settings: sesamin 60 mg/kg intragastric once daily, 4 weeks
Description: as §1, with “assays. The levels of 24S-hydroxycholesterol in rat plasma and brain tissues were measured by ELISA kits (Proteintech Group, Wuhan, China), according to the manufacturer’s instructions.” for “assays.”

HMGCR mRNA = assay: Quantitative real-time PCR of rat brain, HMGCR mRNA; format: in vivo; settings: sesamin 60 mg/kg, 4 weeks, vs control
Description: as §1, with “assays. The experimental procedure was performed as described previously ([Wen et al., 2018]). Total brain RNA and cDNA synthesis were meausured with an RNAiso Plus Reagent Kit and SYBR Premix Ex Taq Kit, respectively (Takara Biotechnology, Dalian, China). Quantitative real-time PCR was performed using SYBR Green PCR Master Mix and an ABI prim 7500 Sequence Detection System (Applied Biosystems, United States). Primers used for RT-qPCR are shown in Supplementary Table S2.” for “assays.”

[2] = Membrane permeability assay across MDCK-MDR1 monolayer; settings: dog
Description: (§3) To estimate the permeability of the sesamin lignans across the blood-brain barrier (BBB), a membrane permeability assay was conducted with an MDCK-MDR1 monolayer. The transport assays were performed by seeding MDCK-MDR1 cells on a tissue culture plate insert (BIOFIL®, PC membrane, 0.33 cm^2 surface area, 0.4 μm pore size) in 24-well companion plates for 5 days. The culture medium was changed once every 2–3 days. To confirm the confluency of the cell monolayer, the trans-epithelial electrical resistance (TEER) of each well was measured before the transport assay using a resistance meter (Millipore, Millicell® ERS-2, United States). […] The cell monolayer was gently washed with Hank’s Balanced Salt Solution (HBSS) at 37°C and the transwell chamber was pre-incubated for 30 min. […] After 120 min of incubation, a 50 μL sample was removed from the receiver compartment and uniformly mixed with 50 μL methanol. Then, it was centrifuged at 20,000 ×g at 4°C for 20 min. All available samples in the receiver compartments were injected into the HPLC system for analysis. The HPLC system comprised an Agilent MSD/MS system controller, two 1,260 series pumps, a 1,200 series autosampler, a 1,200 series variable wavelength detector, and an elite ODS-BP analysis column (4.6 × 200 mm, 5 μm). The mobile phase for sesame lignans was methanol/water (80/20, v/v), and the flow rate was 0.8 ml/min with a detector wavelength of 290 nm. […] Ultraviolet detection was performed at 230 nm. The permeability (P app) and efflux ratio (ER) were calculated as follows (Eqs. 4, 5) ([Grès et al., 1998]). Papp=dQ/dt⋅1/A⋅C0 (4) In Eq. (4), A denotes the area of mass transfer, C0 represents the donor concentration of compound in the upper medium, and dQ/dt is the rate of transmembrane transportation. […] ER=Papp, B→A/Papp, A→B (5)
(§4) In Eq. (5), P app, B→A denotes the basal to apical (B-A) transport rate, and P app, A→B is the apical to basal (A-B) transport rate.

CYP46A1 [3] = assay: Western blotting of rat brain tissue, CYP46A1; format: in vivo; settings: sesamin 60 mg/kg, 4 weeks, vs control
Description: as §1, §2

CYP46A1 mRNA = assay: Quantitative real-time PCR of rat brain, CYP46A1 mRNA; format: in vivo; settings: sesamin 60 mg/kg, 4 weeks, vs control
Description: as §1, with “assays. The experimental procedure was performed as described previously ([Wen et al., 2018]). Total brain RNA and cDNA synthesis were meausured with an RNAiso Plus Reagent Kit and SYBR Premix Ex Taq Kit, respectively (Takara Biotechnology, Dalian, China). Quantitative real-time PCR was performed using SYBR Green PCR Master Mix and an ABI prim 7500 Sequence Detection System (Applied Biosystems, United States). Primers used for RT-qPCR are shown in Supplementary Table S2.” for “assays.”

CYP2C9 = settings: read-out: value of competitive inhibition of 7-position hydroxylation of S-warfarin, ref Fujii et al., 2020; cited from earlier work
[4] = target: T1, recombinant human CYP46A1 (Homo sapiens, UniProt Q9Y6A2); assay: Inhibition of CYP46A1-catalysed testosterone 16β-hydroxylation; format: biochemical; settings: for residual activity of CYP46A1: 10 μM lignan; for residual activity of CYP46A1 / IC50: testosterone 10 μM as substrate; for α: mixed inhibition model; for Ki: testosterone 2–150 μM; for Type of inhibition: testosterone as substrate
T1 construct: purchased Cypex (Dundee, Scotland, United Kingdom)
Description: 16β-hydroxytestosterone formation catalyzed by CYP46A1 was conducted at conditions linear for the duration of incubation and protein concentration. […] After preliminary incubation at 37°C for 5 min, 10 μL NADPH (final concentration, 1 mM) was added to initiate the reaction for 10 min. The reaction was stopped by adding the same volume of acetonitrile containing 1 μM of the internal standard. The mixture was left on ice until it was centrifuged at 20,000×g for 20 min at 4°C. Aliquots of the supernatant were stored at −20°C until analysis. The possible inhibitory intensities of the sesame lignans were evaluated by quantifying the 16-OH-TST generated.
Testosterone 16β-hydroxylation reaction samples were injected into an API 3200 triple quadrupole mass spectrometer (Applied Biosystems, Concord, Ontario, Canada) and an Agilent HP1200 LC system (Agilent Technology Inc., CA, United States). The chromatographic separation was performed on a Hypersil ODS-BP column (150 mm × 2.1 mm, 5 μm; Dalian Elite Analytical Instruments Co. Ltd., China) at ambient temperature. IonSpray Voltage (IS): 4500 V; Temperature (TEM): 590°C; Ion Source Gas1 (GS1, N1): […]; Ion Source Gas2 (GS2, N2): […]; Curtain Gas (CUR): 30 psi; Collision Gas (CAD): 12 psi. MS/MS conditions for analyzed compounds are shown in Supplementary Table S1. Mobile phase A consisted of 0.1% formic acid in water; mobile phase B consisted of 0.1% formic acid in acetonitrile; the flow rate was 0.4 ml/min. The gradient elution program was 0–1 min, 95% A; 1–3 min, 95%–65% A; 3–5 min, 65%–35% A; 5–6 min, 35%–15% A; 6–8 min, 15% A; 15%–95% A, 8–8.1 min; 8.1–12 min, 95% A. 16β-hydroxytestosterone and Carbamazepine (internal standard) were monitored in the positive ion mode, and detected by fragment ions at m/z 305.2→97.2 and 237.1→194.2, respectively. LC-MS/MS data acquisition and integration were performed with Analyst 1.6.3 using the internal standard and peak-area ratios for calculation (linear regression, 1/x weighting).
The three equations and the inhibition constant were as described in our previously published methods ([Wu et al., 2017]). v=Vmax⋅S/Km⋅(1+I/Ki)+S (1) v=Vmax⋅S/(Km+S)⋅(1+I/Ki) (2) v=Vmax⋅S/Km⋅(1+I/Ki)+S⋅(1+I/α⋅Ki) (3) where v is the reaction velocity; S and I denote the substrate and inhibitor concentrations, respectively; K i represents the inhibition constant describing the affinity of the inhibitor for the enzyme; K m refers to the substrate concentration at half-maximal velocity (V max) of the reaction. The α value determines the degree of change in enzyme affinity for the substrate following the binding of the inhibitor. When α is less than 1, binding of an inhibitor […] substrate binding, and the mixed model is identical to non-competitive inhibition. When α is very large (α > 1), the binding of an inhibitor […] substrate binding, and the mixed model depicts competitive inhibition. The type of inhibition was determined by fitting the data to enzyme inhibition models. The goodness-of-fit of kinetic and inhibition models was assessed using R ^2 values and parameter S.D. estimates. Dixon and Lineweaver-Burk plots were also used to characterize the inhibition kinetics. Kinetic constants are reported as the mean ± S.D. of the parameter estimate.

CYP46A1 [5] = assay: Western blotting of CYP46A1 protein in h-CYP46A1-Neuro-2a cells; format: cell-based, human; settings: 20 μM, 24 h
Description: MDCK-MDR1 cells and Neuro-2a-CYP46A1 cells were cultured in DMEM containing 10% (v/v) FBS, 1% nonessential amino acids, 100 U/mL penicillin G, and 100 μg/ml streptomycin, and incubated at 37°C in the presence of 5% CO2 and 95% humidity. The Neuro-2a-CYP46A1 cells were seeded into six-well plates at a density of 1 × 10^5 cells per well and cultured for 24 h. Drug intervention experiments were conducted by replacing the medium with a serum-free medium containing sesame ligands (20 μM) for 24 h.
The cells and tissues were harvested with lysis buffer and cleaved at 4°C for 20 min. All samples were centrifuged at 12,000 × g for 15 min at 4°C. The protein concentrations were quantified by BCA regent kits. Sodium dodecyl sulfate-polyacrylamide gel electrophoresis (SDS-PAGE) was used to separate the proteins, and they were then transferred to PVDF membranes. After incubation of the membranes with 5% non-fat milk for 2 h, they were then incubated with the primary antibodies at 4°C overnight. After washing three times, the membranes were incubated with the secondary antibody for 2 h. The protein bands were detected by a Tanon-5200 imaging system and the densities were analyzed by ImageJ software. The GAPDH antibody served as the internal control for sample loading.

NMDAR2A = assay: Western blotting of rat brain tissue, NMDAR2A; format: in vivo; settings: sesamin 60 mg/kg, 4 weeks, vs control
Description: as §1, §2

HMGCR = assay: Western blotting of rat brain tissue, HMGCR; format: in vivo; settings: sesamin 60 mg/kg, 4 weeks, vs control
Description: as §1, §2

in vitro = settings: dog, MDCK-MDR1
Description: as §3, §4

T1 sequence (Q9Y6A2 whole entry): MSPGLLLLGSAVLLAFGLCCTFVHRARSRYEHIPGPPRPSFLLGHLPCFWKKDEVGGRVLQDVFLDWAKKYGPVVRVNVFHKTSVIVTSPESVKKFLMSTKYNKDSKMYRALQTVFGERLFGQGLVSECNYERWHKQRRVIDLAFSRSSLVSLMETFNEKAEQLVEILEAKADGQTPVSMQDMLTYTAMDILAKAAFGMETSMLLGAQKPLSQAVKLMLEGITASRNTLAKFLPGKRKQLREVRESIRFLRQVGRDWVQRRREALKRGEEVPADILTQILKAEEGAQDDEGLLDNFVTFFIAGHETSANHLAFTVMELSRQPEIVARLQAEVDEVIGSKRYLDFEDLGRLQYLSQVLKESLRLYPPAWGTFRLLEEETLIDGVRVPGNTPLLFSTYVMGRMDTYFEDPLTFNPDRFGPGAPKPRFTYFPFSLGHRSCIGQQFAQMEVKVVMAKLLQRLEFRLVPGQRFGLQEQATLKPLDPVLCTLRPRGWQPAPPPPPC

Compound	reduction of NMDAR2B protein expression in rat brain tissue (NMDAR2B)	decrease of 24S-HC level in brain [1]	plasma concentration of 24S-HC [1]	reduction of 24S-HC level in plasma [1]	change of HMGCR mRNA expression in rat brain (HMGCR mRNA)	Papp at 120 min, 20 μM [2]	reduction of CYP46A1 protein expression in rat brain tissue (CYP46A1 [3])	change of CYP46A1 mRNA expression in rat brain (CYP46A1 mRNA)	Ki (CYP2C9)	residual activity of CYP46A1 [4]	α [4]	IC50 [4]	Ki [4]	Type of inhibition [4]	Type of inhibition ([4]; listed as sesamin)	reduction of CYP46A1 protein level vs control (CYP46A1 [5])	reduction of NMDAR2A protein expression in rat brain tissue (NMDAR2A)	reduction of HMGCR protein expression in rat brain tissue (HMGCR)	Papp at 120 min, 20 μM (in vitro)	Type of inhibition ([4]; listed as sesamolin)
c1cc2c(cc1[C@H]1OC[C@H]3[C@@H]1CO[C@@H]3c1ccc3c(c1)OCO3)OCO2 [Sesamin, sesamin]	43.5%	29.3%	45.747 ng/mL	55.88%	no significant changes	6.75 ×10⁻⁶ cm/s	27.3%	no significant changes	13.1 µM	36.2%	6.491	6.02 µM	6.87 ± 1.07 µM	mixed inhibition	mixed partial competitive inhibition	28.1%	22.1%	31.6%		
Oc1ccc2c(c1)OCO2 [Sesamol, sesamol]						35.3 ×10⁻⁶ cm/s				59.4%		21.3 ± 4.74 µM	18.7 ± 0.72 µM	Non-competitive		26.1%				
c1cc2c(cc1O[C@H]1OC[C@H]3[C@@H]1CO[C@@H]3c1ccc3c(c1)OCO3)OCO2 [Sesamolin, sesamolin]										25.8%	4.891	3.34 ± 0.543 µM	4.02 ± 0.786 µM	Mixed		57.1%			20.5 ×10⁻⁶ cm/s	mixed partial competitive inhibition
